{"source": "PubChem BioAssay AID743088", "about": "(The Scripps Research Institute Molecular Screening Center, 2013)", "experiment_in_all_cases": "radioligand displacement at 30 receptors – biochemical, Panlabs HitProfilingScreen, selectivity assay for AVPR1a antagonist project, profiling panel (AID 743088)", "key": {"Adrenergic beta1": {"tested_on": "Adrenergic beta1", "conditions": "30 targets, at 10 µM, stronger effect = higher value"}, "Adrenergic alpha1B": {"tested_on": "Adrenergic alpha1B", "conditions": "30 targets, at 10 µM, stronger effect = higher value"}, "[1]": {"molecular_target": "5-hydroxytryptamine receptor 2B (Homo sapiens) (UniProt P41595)", "sequence (P41595 whole entry, looked up)": "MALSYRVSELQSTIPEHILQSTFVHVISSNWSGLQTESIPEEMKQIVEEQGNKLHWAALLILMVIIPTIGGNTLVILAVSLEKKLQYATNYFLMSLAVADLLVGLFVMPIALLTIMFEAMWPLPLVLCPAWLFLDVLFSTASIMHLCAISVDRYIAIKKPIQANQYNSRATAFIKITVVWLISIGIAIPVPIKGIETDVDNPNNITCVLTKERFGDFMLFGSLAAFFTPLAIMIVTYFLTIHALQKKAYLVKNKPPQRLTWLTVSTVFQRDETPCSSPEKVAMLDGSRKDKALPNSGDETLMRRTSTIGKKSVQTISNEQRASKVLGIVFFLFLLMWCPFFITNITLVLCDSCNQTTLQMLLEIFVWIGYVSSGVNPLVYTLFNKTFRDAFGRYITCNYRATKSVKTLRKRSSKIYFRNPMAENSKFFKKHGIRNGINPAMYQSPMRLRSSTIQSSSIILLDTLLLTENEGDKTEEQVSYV", "conditions": "30 targets, Serotonin (5-Hydroxytryptamine) 5-HT2B, at 10 µM, stronger effect = higher value"}, "Nicotinic Acetylcholine": {"tested_on": "Nicotinic Acetylcholine", "conditions": "30 targets, at 10 µM, stronger effect = higher value"}, "GABAA Central": {"tested_on": "GABAA Central", "conditions": "30 targets, at 10 µM, stronger effect = higher value"}, "[2]": {"tested_on": "Alpha-2A adrenergic receptor (Homo sapiens) + Histamine H1 receptor (Homo sapiens) + Mu-type opioid receptor (Homo sapiens)", "conditions": "30 targets, at 10 µM, stronger effect = higher value"}, "Histamine H1": {"tested_on": "Histamine H1", "conditions": "30 targets, at 10 µM, stronger effect = higher value"}, "Opiate mu (OP3, MOP)": {"tested_on": "Opiate mu (OP3, MOP)", "conditions": "30 targets, at 10 µM, stronger effect = higher value"}, "[3]": {"molecular_target": "Beta-2 adrenergic receptor (Homo sapiens) (UniProt P07550)", "sequence (P07550 whole entry, looked up)": "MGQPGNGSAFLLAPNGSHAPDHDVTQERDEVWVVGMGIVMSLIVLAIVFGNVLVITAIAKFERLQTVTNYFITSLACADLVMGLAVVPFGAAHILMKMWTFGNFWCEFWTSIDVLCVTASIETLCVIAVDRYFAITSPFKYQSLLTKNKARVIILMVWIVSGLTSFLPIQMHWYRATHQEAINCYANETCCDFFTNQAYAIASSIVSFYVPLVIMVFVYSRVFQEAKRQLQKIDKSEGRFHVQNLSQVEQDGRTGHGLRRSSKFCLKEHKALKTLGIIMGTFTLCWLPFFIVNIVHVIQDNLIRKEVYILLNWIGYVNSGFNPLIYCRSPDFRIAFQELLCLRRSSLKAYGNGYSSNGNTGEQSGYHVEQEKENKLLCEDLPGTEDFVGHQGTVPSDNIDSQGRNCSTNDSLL", "conditions": "30 targets, Adrenergic beta2, at 10 µM, stronger effect = higher value"}, "Glutamate NMDA": {"tested_on": "Glutamate NMDA", "conditions": "30 targets, Phencyclidine site, at 10 µM, stronger effect = higher value"}, "Adenosine A1": {"tested_on": "Adenosine A1", "conditions": "30 targets, at 10 µM, stronger effect = higher value"}, "[4]": {"molecular_target": "D(1A) dopamine receptor (Homo sapiens) (UniProt P21728)", "sequence (P21728 whole entry, looked up)": "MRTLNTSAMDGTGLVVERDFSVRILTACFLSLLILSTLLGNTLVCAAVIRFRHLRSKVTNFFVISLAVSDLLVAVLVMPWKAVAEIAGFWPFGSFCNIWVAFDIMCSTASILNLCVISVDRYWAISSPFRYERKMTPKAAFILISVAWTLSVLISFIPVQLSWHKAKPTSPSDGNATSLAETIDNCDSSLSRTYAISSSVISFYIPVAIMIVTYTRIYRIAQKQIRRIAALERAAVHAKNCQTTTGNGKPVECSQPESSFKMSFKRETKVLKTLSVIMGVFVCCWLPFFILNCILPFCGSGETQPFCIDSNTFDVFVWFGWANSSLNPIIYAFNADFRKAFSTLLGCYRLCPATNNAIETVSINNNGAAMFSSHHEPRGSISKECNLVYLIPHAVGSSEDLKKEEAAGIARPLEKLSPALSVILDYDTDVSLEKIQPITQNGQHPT", "conditions": "30 targets, Dopamine D1, at 10 µM, stronger effect = higher value"}, "Sigma 1": {"tested_on": "Sigma 1", "conditions": "30 targets, at 10 µM, stronger effect = higher value"}, "[5]": {"molecular_target": "Muscarinic acetylcholine receptor M3 (Homo sapiens) (UniProt P20309)", "sequence (P20309 whole entry, looked up)": "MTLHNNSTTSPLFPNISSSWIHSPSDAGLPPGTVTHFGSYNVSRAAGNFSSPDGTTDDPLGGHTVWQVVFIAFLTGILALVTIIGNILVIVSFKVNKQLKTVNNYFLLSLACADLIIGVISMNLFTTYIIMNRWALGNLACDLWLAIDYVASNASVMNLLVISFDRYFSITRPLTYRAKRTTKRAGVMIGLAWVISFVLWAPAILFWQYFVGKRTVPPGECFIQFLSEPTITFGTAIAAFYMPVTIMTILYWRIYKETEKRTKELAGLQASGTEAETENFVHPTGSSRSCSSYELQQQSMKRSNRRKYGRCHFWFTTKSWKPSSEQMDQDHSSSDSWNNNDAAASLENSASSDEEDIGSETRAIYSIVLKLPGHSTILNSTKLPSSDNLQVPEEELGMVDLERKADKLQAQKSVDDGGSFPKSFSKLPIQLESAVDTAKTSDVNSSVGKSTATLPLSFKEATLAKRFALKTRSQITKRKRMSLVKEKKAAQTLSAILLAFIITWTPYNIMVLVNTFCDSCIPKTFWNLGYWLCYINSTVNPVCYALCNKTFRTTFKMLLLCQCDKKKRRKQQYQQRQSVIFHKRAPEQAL", "conditions": "30 targets, at 10 µM, stronger effect = higher value"}, "Dopamine D2": {"tested_on": "Dopamine D2", "conditions": "30 targets, at 10 µM, stronger effect = higher value"}, "[6]": {"molecular_target": "Voltage-gated inwardly rectifying potassium channel KCNH2 (Homo sapiens) (UniProt Q12809)", "sequence (Q12809 whole entry, looked up)": "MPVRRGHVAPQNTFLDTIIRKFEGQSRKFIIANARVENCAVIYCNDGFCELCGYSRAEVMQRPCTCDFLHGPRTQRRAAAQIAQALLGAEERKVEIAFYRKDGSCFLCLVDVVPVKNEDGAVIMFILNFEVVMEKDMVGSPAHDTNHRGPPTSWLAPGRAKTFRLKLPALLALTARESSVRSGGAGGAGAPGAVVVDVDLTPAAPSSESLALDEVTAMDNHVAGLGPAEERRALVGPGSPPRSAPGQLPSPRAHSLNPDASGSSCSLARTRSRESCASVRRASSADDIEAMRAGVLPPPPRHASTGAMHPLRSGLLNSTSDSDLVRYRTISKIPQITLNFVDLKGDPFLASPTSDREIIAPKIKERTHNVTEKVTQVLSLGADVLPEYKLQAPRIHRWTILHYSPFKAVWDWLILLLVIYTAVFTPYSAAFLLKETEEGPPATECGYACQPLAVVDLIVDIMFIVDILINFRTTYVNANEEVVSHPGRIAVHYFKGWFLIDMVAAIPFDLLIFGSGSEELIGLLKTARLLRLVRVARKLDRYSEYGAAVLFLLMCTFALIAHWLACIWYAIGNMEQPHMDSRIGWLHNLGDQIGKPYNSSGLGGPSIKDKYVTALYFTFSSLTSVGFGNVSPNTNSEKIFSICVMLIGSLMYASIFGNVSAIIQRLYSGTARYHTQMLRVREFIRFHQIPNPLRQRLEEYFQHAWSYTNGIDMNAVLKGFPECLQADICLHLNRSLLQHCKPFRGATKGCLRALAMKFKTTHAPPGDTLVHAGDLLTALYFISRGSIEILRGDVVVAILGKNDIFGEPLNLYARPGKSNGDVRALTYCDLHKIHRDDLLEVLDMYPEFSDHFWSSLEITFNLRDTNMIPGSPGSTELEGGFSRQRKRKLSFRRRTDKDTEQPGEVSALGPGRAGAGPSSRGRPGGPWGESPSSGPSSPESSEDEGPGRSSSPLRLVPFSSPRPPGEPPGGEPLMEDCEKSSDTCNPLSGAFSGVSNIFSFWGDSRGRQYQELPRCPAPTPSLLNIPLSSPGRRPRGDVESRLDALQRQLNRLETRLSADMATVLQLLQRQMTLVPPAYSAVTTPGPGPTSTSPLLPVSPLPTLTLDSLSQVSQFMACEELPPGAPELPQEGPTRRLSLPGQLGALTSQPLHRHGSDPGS", "conditions": "30 targets, Potassium Channel hERG, at 10 µM, stronger effect = higher value"}, "[7]": {"molecular_target": "Alpha-2A adrenergic receptor (Homo sapiens) (UniProt P08913)", "sequence (P08913 whole entry, looked up)": "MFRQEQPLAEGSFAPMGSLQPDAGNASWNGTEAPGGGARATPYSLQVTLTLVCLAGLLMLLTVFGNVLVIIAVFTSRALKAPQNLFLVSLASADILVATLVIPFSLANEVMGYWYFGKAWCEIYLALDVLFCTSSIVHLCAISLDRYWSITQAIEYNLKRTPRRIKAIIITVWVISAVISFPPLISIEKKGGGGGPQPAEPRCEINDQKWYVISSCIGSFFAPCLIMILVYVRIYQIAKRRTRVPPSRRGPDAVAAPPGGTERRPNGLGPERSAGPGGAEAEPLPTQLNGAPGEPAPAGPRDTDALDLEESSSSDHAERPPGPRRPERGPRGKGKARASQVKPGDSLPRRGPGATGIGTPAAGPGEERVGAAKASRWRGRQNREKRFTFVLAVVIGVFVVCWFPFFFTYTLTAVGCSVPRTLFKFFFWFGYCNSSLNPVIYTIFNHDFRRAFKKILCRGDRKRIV", "conditions": "30 targets, Adrenergic alpha2A, at 10 µM, stronger effect = higher value"}, "Sodium Channel Site 2": {"tested_on": "Sodium Channel Site 2", "conditions": "30 targets, at 10 µM, stronger effect = higher value"}, "[8]": {"molecular_target": "Muscarinic acetylcholine receptor M2 (Homo sapiens) (UniProt P08172)", "sequence (P08172 whole entry, looked up)": "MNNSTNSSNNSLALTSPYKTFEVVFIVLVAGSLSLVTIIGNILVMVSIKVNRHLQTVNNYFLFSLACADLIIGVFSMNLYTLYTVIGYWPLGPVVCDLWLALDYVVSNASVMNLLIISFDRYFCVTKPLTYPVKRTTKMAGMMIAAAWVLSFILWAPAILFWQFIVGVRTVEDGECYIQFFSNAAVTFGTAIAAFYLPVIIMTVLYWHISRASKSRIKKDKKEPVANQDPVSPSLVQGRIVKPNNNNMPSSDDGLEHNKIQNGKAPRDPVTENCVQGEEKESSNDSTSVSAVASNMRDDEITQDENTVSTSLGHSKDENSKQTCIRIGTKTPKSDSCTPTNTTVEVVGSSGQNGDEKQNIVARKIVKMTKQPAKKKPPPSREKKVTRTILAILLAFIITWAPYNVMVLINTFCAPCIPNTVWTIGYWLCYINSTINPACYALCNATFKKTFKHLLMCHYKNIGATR", "conditions": "30 targets, at 10 µM, stronger effect = higher value"}, "Calcium Channel L-Type": {"tested_on": "Calcium Channel L-Type", "conditions": "30 targets, Dihydropyridine site, at 10 µM, stronger effect = higher value"}, "Cannabinoid CB1": {"tested_on": "Cannabinoid CB1", "conditions": "30 targets, at 10 µM, stronger effect = higher value"}, "Adrenergic alpha1A": {"tested_on": "Adrenergic alpha1A", "conditions": "30 targets, at 10 µM, stronger effect = higher value"}, "[9]": {"tested_on": "Transporter Norepinephrine (NET)", "conditions": "30 targets, at 10 µM, stronger effect = higher value"}, "Prostanoid EP4": {"tested_on": "Prostanoid EP4", "conditions": "30 targets, at 10 µM, stronger effect = higher value"}, "Adenosine A2A": {"tested_on": "Adenosine A2A", "conditions": "30 targets, at 10 µM, stronger effect = higher value"}}, "note": "Activity calls are given as the source filed them.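 The calls were made as follows: active = binding inhibited by at least 50%, or stimulated by at least 50%, shown as inhibition of -50% or lower; inactive = the rest.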", "data": [{"compound": "O=C(C1CCN(c2ccc(Cl)cn2)CC1)N(CC1CC1)c1ccc(Cl)cc1", "values": [{"measurement": "inhibition of binding", "setting": "Adrenergic beta1", "value": "12% (inactive)"}, {"measurement": "inhibition of binding", "setting": "Adrenergic alpha1B", "value": "-15% (inactive)"}, {"measurement": "inhibition of binding", "setting": "[1]", "value": "36% (inactive)"}, {"measurement": "inhibition of binding", "setting": "Nicotinic Acetylcholine", "value": "-15% (inactive)"}, {"measurement": "inhibition of binding", "setting": "GABAA Central; Flunitrazepam site", "value": "-6% (inactive)"}, {"measurement": "inhibition of binding", "setting": "GABAA Central; Muscimol site", "value": "7% (inactive)"}, {"measurement": "inhibition of binding", "setting": "[2]", "value": "6% (inactive)"}, {"measurement": "inhibition of binding", "setting": "Histamine H1", "value": "12% (inactive)"}, {"measurement": "inhibition of binding", "setting": "Opiate mu (OP3, MOP)", "value": "23% (inactive)"}, {"measurement": "inhibition of binding", "setting": "[3]", "value": "5% (inactive)"}, {"measurement": "inhibition of binding", "setting": "Glutamate NMDA", "value": "5% (inactive)"}, {"measurement": "inhibition of binding", "setting": "Adenosine A1", "value": "-4% (inactive)"}, {"measurement": "inhibition of binding", "setting": "[4]", "value": "-6% (inactive)"}, {"measurement": "inhibition of binding", "setting": "Sigma 1", "value": 61, "unit": "%"}, {"measurement": "inhibition of binding", "setting": "[5]", "value": "-2% (inactive)"}, {"measurement": "inhibition of binding", "setting": "Dopamine D2", "value": "1% (inactive)"}, {"measurement": "inhibition of binding", "setting": "[6]", "value": "22% (inactive)"}, {"measurement": "inhibition of binding", "setting": "[7]", "value": "8% (inactive)"}, {"measurement": "inhibition of binding", "setting": "Sodium Channel Site 2", "value": "35% (inactive)"}, {"measurement": "inhibition of binding", "setting": "[8]", "value": "-5% (inactive)"}, {"measurement": "inhibition of binding", "setting": "Calcium Channel L-Type", "value": "44% (inactive)"}, {"measurement": "inhibition of binding", "setting": "Cannabinoid CB1", "value": "48% (inactive)"}, {"measurement": "inhibition of binding", "setting": "Adrenergic alpha1A", "value": "23% (inactive)"}, {"measurement": "inhibition of binding", "setting": "[9]", "value": "47% (inactive)"}, {"measurement": "inhibition of binding", "setting": "Prostanoid EP4", "value": "31% (inactive)"}, {"measurement": "inhibition of binding", "setting": "Adenosine A2A", "value": "7% (inactive)"}]}]}
